# Test results taken from PMC6934184, “Selective DNA-PKcs inhibition extends the therapeutic index of localized radiotherapy and chemotherapy” (The Journal of Clinical Investigation, 2019).
# Test system: Huh7 subcutaneous xenografts
# Experiment: subcutaneous Huh7 xenograft with intratumoral doxorubicin-eluting beads
# Format: in vivo, CD-1 nude mice
# Protocol: DC M1 beads were loaded with doxorubicin at 25 mg/mL as described in Supplemental Methods. Huh7 cells (5 × 10^6 cells per mouse in 50 μL, 50% vol/vol Matrigel) were implanted s.c. into the right flank of female CD-1 nude mice to generate subcutaneous Huh7 xenografts (180–220 mm^3). Mice were then treated with 5 μL doxorubicin-loaded or unloaded beads suspended in 30 μL saline administered via an intratumoral injection along the length of each tumor using a 29G needle. One hour after bead implantation, twice-daily dosing with 30 mg/kg NU5455 or vehicle control (1% vol/vol acetic acid in water) was commenced via oral gavage (9-hour dosing interval) and continued for up to 20 days. Tumor volumes were calculated daily using bilateral caliper measurements as described in Supplemental Methods, and body weight measurements taken daily throughout treatment. […]
# γH2AX immunohistochemistry in HCC tumor xenografts
# FFPE tumor sections (4 µm) were dewaxed in xylene and hydrated in descending concentrations of ethanol. Endogenous tissue peroxidase activity was quenched using 3% v/v hydrogen peroxide. Antigen retrieval was performed using 1 mM EDTA, pH 8.0 in a microwave (Kenwood). Tissue sections were blocked for avidin and biotin using the […]
# Avidin/Biotin Blocking Kit (Vector Laboratories), and washed in TBST be tween all subsequent steps. Slides were blocked in 20% v/v pig serum in DI water, and sections incubated with an antibody against γH2AX ( 20E3, Cell Signaling Technology #9718, 1 in 200 in TBST) in a humidified container at 4°C overnight.
# Sections were th en incubated with polyclonal swine anti -rabbit IgG, biotinylated (Dako #E0353, 1 in 200 in TBST), followed by VectaStain RTU Elite ABC reagent (Vector Laboratories). Slides were stained using DAB Peroxidase Substrate Kit (Vector Laboratories) prepared according to the manufacturer’s instructions. Slides were washed in DI water, then counterstained in filtered haematoxylin s olution. Background staining was minimized by exposure to acid alcohol solution (1% v/v hydrochloric acid in 70% v/v ethanol, Fisher), and staining blued by incubation in Scott’s tap water. Stained slides were then dehydrated in ascending concentrations of ethanol, followed by clearing in xylene. Glass coverslips (Dako) were mounted onto slides using DPX mounting medium. pDNA-PKcs Ser2056 immunohistochemistry in HCC tumor xenografts
# Tumor sections were dewaxed in xylene, hydrated, and endogenous peroxidase activity quenched as detailed above. Antigen retrieval was performed in 1X citrate buffer (10 mM citric acid (Acros), pH 6.0 + 0.5% v/v Tween 20), using a decloaker (A. Menarini Diagnostics).
# Tissue sections were blocked in 1% w/v BSA and 1% v/v normal go at serum in PBS (1 hour, RT). Sections were then incubated at 4°C overnight in a humidified container with an antibody against pDNA -PKcs Ser2056 (Abcam #18192, 1:1000 in 1% w/v BSA and 1% v/v […]
# Sections were washed with TBST before incuba tion with EnVision+ anti -rabbit Polymer-HRP solution (Dako #K4002). Slides were washed in TBST , and antibody conjugates visualized by incubation with ImmPACT DAB peroxidase substrate working solution. […]
# IHC slides were digitized via conversion using the Aperio ScanScope CS Brightfield scanner (Leica Biosystems) at x20 zoom. Percentage hepatocyte nuclear positivity for pDNA -PKcs Ser2056 and γH2AX was determined using a nuclear algorithm generated with the Aperio ImageScope software v11.2.0.780 (Leica Biosystems). […]
structure (smiles),measurement,setting,value
CN(C(=O)CN1CCOCC1)c1ccc2sc3c(-c4cccc5c(=O)cc(N6CC7CCC(C6)O7)oc45)cccc3c2c1 [NU5455],DNA-PKcs phosphorylation (Ser2056) in tumors,"72 hours of treatment, doxorubicin-loaded beads, immunohistochemistry",reduced by NU5455 treatment
same,DNA damage (γH2AX) in area surrounding doxorubicin-eluting beads,"72 hours, immunohistochemistry",significantly augmented
same,"mean RTV4 value, monotherapy","NU5455 30 mg/kg b.i.d. with unloaded beads, or doxorubicin beads with vehicle",10.6 days
same,body weight or clinical condition versus vehicle alone,NU5455 30 mg/kg oral b.i.d. + doxorubicin-eluting beads,no additional impact
same,"mean RTV4 value, combination",NU5455 30 mg/kg oral b.i.d. + intratumoral doxorubicin-eluting beads,17.8 days
